Test results reported in patent US7919495B2, “Pyridyl non-aromatic nitrogen-containing heterocyclic-1-carboxylate compound” (Astellas Pharma, Inc., priority 2005, dated 2011).

Key:
[1] = test system: CPA-induced urinary frequency in rat; assay: animal or person; assay type: in vivo; details: po, 48 h, read-out: effective dose (increase of reduced effective bladder capacity)
[2] = target: FAAH (rat brain homogenate) (Rattus norvegicus, UniProt P97612); assay: biochemical
[3] = target: T1, FAAH in human bladder epithelial cancer-derived cell line 5678 cells (Homo sapiens, UniProt O00519); assay: Screening for FAAH activity-inhibiting substance with human bladder epithelial cancer-derived cell (IC50, Table 64); assay type: cell-based
T1 construct: host or cells: human bladder epithelial cancer-derived cell line ('5678' [sic], HTB-9)
T1 sequence (O00519 1-579): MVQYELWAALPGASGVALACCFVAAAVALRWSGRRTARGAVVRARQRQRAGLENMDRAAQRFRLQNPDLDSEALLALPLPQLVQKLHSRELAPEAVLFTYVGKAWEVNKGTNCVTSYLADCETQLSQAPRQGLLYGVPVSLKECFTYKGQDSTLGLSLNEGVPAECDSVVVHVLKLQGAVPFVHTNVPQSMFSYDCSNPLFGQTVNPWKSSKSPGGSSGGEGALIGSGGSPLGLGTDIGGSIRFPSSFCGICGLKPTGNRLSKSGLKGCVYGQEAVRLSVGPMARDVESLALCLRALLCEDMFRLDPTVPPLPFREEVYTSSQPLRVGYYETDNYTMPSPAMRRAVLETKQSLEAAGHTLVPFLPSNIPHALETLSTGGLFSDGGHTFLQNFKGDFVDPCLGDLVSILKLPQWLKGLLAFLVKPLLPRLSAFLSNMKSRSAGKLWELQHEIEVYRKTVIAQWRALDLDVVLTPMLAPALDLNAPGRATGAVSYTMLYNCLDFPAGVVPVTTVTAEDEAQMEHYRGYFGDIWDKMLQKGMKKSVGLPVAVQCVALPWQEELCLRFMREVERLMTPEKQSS
Experimental: Screening for FAAH Activity-Inhibiting Substance with Human Bladder Epithelial Cancer-Derived Cell
(1) Screening for FAAH Activity-Inhibiting Substance:
Human bladder epithelial cancer-derived cell line […] cells (HTB-9; ATCC) were seeded on a 48-well cell culture plate in an amount of 1×10^5 cell/well, using 10% fetal bovine serum (HyClone)-containing RPMI1640 medium (Invitrogen). After incubated at 37° C. for at least 12 hours, the cells were washed with 400 μl/well of a buffer (Hank's Balanced Salt Solution, 20 mM Hepes-NaOH (pH 7.4)). A test substance dissolved in DMSO was added to a substrate solution (the above buffer containing 3 μCi/ml radiolabeled anandamide (Anandamide [ethanolamine 1-3H]) and 10 μM anandamide) so as to have a concentration of from 0.003 nM to 30 nM. As a control, DMSO alone was added. 100 μl/well of the substrate solution was added to the above cells, and incubated in a CO2 incubator at 37° C. for 30 minutes. Next, the cell culture plate was transferred onto ice, and the substrate solution was removed by suction; and 75 μl/well of a cytolytic solution (the above buffer containing 0.5% Triton X-100, and 10 μM of FAAH-inhibitory activity-having compound, 3′-carbamoylbiphenyl-3-yl cyclohexylcarbamate (URB597; Cayman chemical; Kathuria et al., Nature Med., Vol. 9, pp. 76-81, 2003)) was added thereto, followed by stirring. The resulting cell lysate in every well was individually transferred into a 1.5 ml sample tube, to which was added 150 μl of 1:1 (by volume) chloroform/methanol solution, followed by vortexing. This was centrifuged (15000 rpm, 2 minutes), whereby the decomposed product, ethanolamine (ethanolamine 1-^3H) was separated in the upper layer (water/methanol layer) and the unreacted radiolabeled anandamide was in the lower layer (chloroform layer). 25 μl of the upper layer was transferred into a 96-well organic solvent-resistant white microplate (PicoPlate-96; Perkin Elmer), 150 μl of Microscint-20 (Perkin Elmer) was added thereto, and this was measured with a microplate scintillation counter (TopCount™; Beckman). As compared with the control, the substance that gave a decreased value was selected as an FAAH activity-inhibiting substance.
(2) Measurement of IC50 Value of FAAH Activity-Inhibiting Substance:
A test compound dissolved in DMSO to have a concentration of 10 mM was dissolved in the substrate solution so as to have a varying concentration of from 0.003 nM to 30 μM. According to the method mentioned above, the compound was analyzed for its influence on FAAH activity. As a negative control, DMSO was used. As a positive control, URB597 was added to the substrate solution to have a concentration of 10 μM. Based on the measured value of the positive control, 0%, and on the measured value of the negative control, 100%, IC50 value of the test substance was obtained.

Sequence of FAAH (rat brain homogenate) (P97612 whole entry): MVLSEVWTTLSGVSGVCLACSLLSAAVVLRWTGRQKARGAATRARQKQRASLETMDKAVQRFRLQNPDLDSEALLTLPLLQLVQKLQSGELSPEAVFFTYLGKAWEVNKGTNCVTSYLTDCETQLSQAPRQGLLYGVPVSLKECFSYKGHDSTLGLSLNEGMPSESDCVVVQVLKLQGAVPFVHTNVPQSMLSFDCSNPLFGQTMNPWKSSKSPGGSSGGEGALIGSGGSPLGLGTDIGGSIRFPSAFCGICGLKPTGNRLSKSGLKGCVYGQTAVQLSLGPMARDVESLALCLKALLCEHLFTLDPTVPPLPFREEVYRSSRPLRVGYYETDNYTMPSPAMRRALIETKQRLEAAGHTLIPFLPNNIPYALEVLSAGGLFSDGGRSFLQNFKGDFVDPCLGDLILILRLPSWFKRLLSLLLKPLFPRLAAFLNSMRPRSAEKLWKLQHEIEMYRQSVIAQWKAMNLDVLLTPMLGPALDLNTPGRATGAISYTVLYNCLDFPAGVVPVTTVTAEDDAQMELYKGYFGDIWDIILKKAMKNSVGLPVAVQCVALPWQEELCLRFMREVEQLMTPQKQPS

Structure (SMILES) | minimal effective dose [1] [mg/kg] | IC50 [2] [pM] | IC50 [3] [pM]
O=C(Oc1cccnc1)N1CCC(Oc2ccc(OCc3cccc(F)c3)cc2)CC1 [Example 2, (pyridin-3-yl) 4-{4-[(3-fluorobenzyl)oxy]phenoxy}piperidine-1-carboxylate] | 3 | 140 | 110
N#Cc1cccc(COc2ccc(C(=O)N3CCN(C(=O)Oc4cccnc4)CC3)cc2)c1 [Example 151] |  | 27000 | 170
O=C(O)c1cncc(OC(=O)N2CCC(Oc3ccc(OCCC4CCCCC4)cc3)CC2)c1 [Example 228] | 1 | 190 | 220
Cc1cccc(N2CCC(CCCC3CCN(C(=O)Oc4cncc(C(=O)O)c4)CC3)CC2)n1 [Example 313] | 1 |  | 890
CN(C)C(=O)c1cccc(CCC2CCN(C(=O)Oc3cncc(C(N)=O)c3)CC2)c1 [Example 325] | 1 |  | 540
NC(=O)c1cncc(OC(=O)N2CCC(CCc3cccc(C(=O)N4CCCC4)c3)CC2)c1 [Example 359] | 1 | 1300 | 520
